Source: ChEMBL document CHEMBL2375306, “Antimicrobial peptides containing unnatural amino acid exhibit potent bactericidal activity against ESKAPE pathogens” (Bioorg Med Chem, 2013)
Converted amounts (≈) assume the structure as drawn. Square brackets hold non-standard residues; d marks the D form. Peptide text beside a SMILES is read from it. * marks the point of attachment. ξ: configuration not given here. X6 = NCCCC[C@H](NC(=O)[C@H](CCCCN)NC(=O)[C@H](CCCCN)NC(=O)[C@H](CCCCN)NCCC(=O)[C@@H]1Cc2ccccc2CN1*)C(N)=O; Pro(3ξ,4ξ-(CH2)4) = O=C(O)[C@H]1NCC2CCCCC21; Phe(4-F) = N[C@@H](Cc1ccc(F)cc1)C(=O)O; Tic = O=C(O)[C@@H]1Cc2ccccc2CN1; βAla = NCCC(=O)O

How the values were obtained:
Format in all cases: functional
Enterococcus faecium = assay: Antibacterial activity against Enterococcus faecium MMC4 after 24 hrs by broth microdilution method; details: MMC4, 24 h
Klebsiella aerogenes = assay: Antibacterial activity against Enterobacter aerogenes after 24 hrs by broth microdilution method
Pseudomonas aeruginosa = assay: Antibacterial activity against Pseudomonas aeruginosa PAO1 after 24 hrs by broth microdilution method; details: PAO1, 24 h
Klebsiella pneumoniae = assay: Antibacterial activity against Klebsiella pneumoniae BAMS clinical isolate 07-18 after 24 hrs by broth microdilution method; details: BAMS clinical isolate 07-18, 24 h
Acinetobacter baumannii = assay: Antibacterial activity against Acinetobacter baumannii WRAIR clinical isolate 13 after 24 hrs by broth microdilution method; details: WRAIR clinical isolate 13, 24 h
Staphylococcus aureus = assay: Antibacterial activity against methicillin-sensitive Staphylococcus aureus UAMS-1 after 24 hrs by broth microdilution method; details: UAMS-1, 24 h

Compound | MIC (Enterococcus faecium) [µg/mL] | MIC (Klebsiella aerogenes) [µg/mL] | MIC (Pseudomonas aeruginosa) [µg/mL] | MIC (Klebsiella pneumoniae) [µg/mL] | MIC (Acinetobacter baumannii) [µg/mL] | MIC (Staphylococcus aureus) [µg/mL] | MBC (Enterococcus faecium) [µg/mL] | MBC (Klebsiella aerogenes) [µg/mL] | MBC (Pseudomonas aeruginosa) [µg/mL] | MBC (Klebsiella pneumoniae) [µg/mL] | MBC (Acinetobacter baumannii) [µg/mL] | MBC (Staphylococcus aureus) [µg/mL]
CC(=O)NCC(=O)N[C@@H](Cc1ccc(F)cc1)C(=O)N1Cc2ccccc2C[C@H]1C(=O)N1CC2CCCCC2[C@H]1C(=O)NCC(=O)N[C@@H](CCCCN)C(=O)N1Cc2ccccc2C[C@H]1C(=O)N1CC2CCCCC2[C@H]1C(=O)NCC(=O)N[C@@H](Cc1ccc(F)cc1)C(=O)N1Cc2ccccc2C[C@H]1C(=O)N1CC2CCCCC2[C@H]1C(=O)NCC(=O)N[C@@H](CCCCN)C(=O)N1Cc2ccccc2C[C@H]1C(=O)N[C@@H](CCCCN)C(=O)N[C@@H](CCCCN)C(=O)N[C@@H](CCCCN)C(=O)N[C@@H](CCCCN)C(N)=O (stereo not given in full) (Ac-G[Phe(4-F)][Tic][Pro(3ξ,4ξ-(CH2)4)]GK[Tic][Pro(3ξ,4ξ-(CH2)4)]G[Phe(4-F)][Tic][Pro(3ξ,4ξ-(CH2)4)]GK[Tic]KKKK-NH2) | 25 (≈ 10.1 µM) | > 100 | > 100 | 100 (≈ 40.4 µM) | 12.5 (≈ 5.05 µM) | 100 (≈ 40.4 µM) | 50 (≈ 20.2 µM) | > 100 | > 100 | 100 (≈ 40.4 µM) | 25 (≈ 10.1 µM) | 100 (≈ 40.4 µM)
CC(=O)NCC(=O)N[C@@H](CC(=O)O)C(=O)N[C@@H](Cc1ccccc1)C(=O)N1Cc2ccccc2C[C@H]1C(=O)N1CC2CCCCC2[C@H]1C(=O)NCC(=O)N[C@@H](CCCCN)C(=O)N1Cc2ccccc2C[C@H]1C(=O)N1CC2CCCCC2[C@H]1C(=O)NCC(=O)N[C@@H](CC(=O)O)C(=O)N[C@@H](Cc1ccccc1)C(=O)N1Cc2ccccc2C[C@H]1C(=O)N1CC2CCCCC2[C@H]1C(=O)NCC(=O)N[C@@H](CCCCN)C(=O)N1Cc2ccccc2C[C@H]1C(=O)N[C@@H](CCCCN)C(=O)N[C@@H](CCCCN)C(=O)N[C@@H](CCCCN)C(=O)N[C@@H](CCCCN)C(N)=O (stereo not given in full) (Ac-GDF[Tic][Pro(3ξ,4ξ-(CH2)4)]GK[Tic][Pro(3ξ,4ξ-(CH2)4)]GDF[Tic][Pro(3ξ,4ξ-(CH2)4)]GK[Tic]KKKK-NH2) | 12.5 (≈ 4.68 µM) | 100 (≈ 37.4 µM) | 50 (≈ 18.7 µM) | 50 (≈ 18.7 µM) | 12.5 (≈ 4.68 µM) | 100 (≈ 37.4 µM) | 50 (≈ 18.7 µM) | 100 (≈ 37.4 µM) | 50 (≈ 18.7 µM) | 100 (≈ 37.4 µM) | 12.5 (≈ 4.68 µM) | 100 (≈ 37.4 µM)
CC(=O)N[C@@H](CCCCN)C(=O)N[C@@H](CCCCN)C(=O)N[C@@H](CCCCN)C(=O)N[C@@H](CCCCN)C(=O)NCC(=O)N[C@@H](Cc1ccccc1)C(=O)N1Cc2ccccc2C[C@H]1C(=O)N1CC2CCCCC2[C@H]1C(=O)NCC(=O)N[C@@H](CCCCN)C(=O)N1Cc2ccccc2C[C@H]1C(=O)N1CC2CCCCC2[C@H]1C(=O)NCC(=O)N[C@@H](Cc1ccccc1)C(=O)N1Cc2ccccc2C[C@H]1C(=O)N1CC2CCCCC2[C@H]1C(=O)NCC(=O)N[C@@H](CCCCN)C(=O)N1Cc2ccccc2C[C@H]1C(N)=O (stereo not given in full) (Ac-KKKKGF[Tic][Pro(3ξ,4ξ-(CH2)4)]GK[Tic][Pro(3ξ,4ξ-(CH2)4)]GF[Tic][Pro(3ξ,4ξ-(CH2)4)]GK[Tic]-NH2) | 25 (≈ 10.2 µM) | > 100 | > 100 | 100 (≈ 41 µM) | 12.5 (≈ 5.12 µM) | > 100 | > 100 | > 100 | > 100 | 100 (≈ 41 µM) | 25 (≈ 10.2 µM) | > 100

Now from value to compound, other results behind:

MIC (Enterococcus faecium) [µg/mL] | MIC (Klebsiella aerogenes) [µg/mL] | MIC (Pseudomonas aeruginosa) [µg/mL] | MIC (Klebsiella pneumoniae) [µg/mL] | MIC (Acinetobacter baumannii) [µg/mL] | MIC (Staphylococcus aureus) [µg/mL] | Compound | MBC (Enterococcus faecium) [µg/mL] | MBC (Klebsiella aerogenes) [µg/mL] | MBC (Pseudomonas aeruginosa) [µg/mL] | MBC (Klebsiella pneumoniae) [µg/mL] | MBC (Acinetobacter baumannii) [µg/mL] | MBC (Staphylococcus aureus) [µg/mL]
6.25 (≈ 1.72 µM) | 50 (≈ 13.8 µM) | 25 (≈ 6.9 µM) | 50 (≈ 13.8 µM) | 6.25 (≈ 1.72 µM) | 50 (≈ 13.8 µM) | CC(C)C[C@H](NC(=O)[C@@H](N)CCCCN)C(=O)N1Cc2ccccc2C[C@H]1C(=O)N1CC2CCCCC2[C@H]1C(=O)NCC(=O)N[C@@H](CCCCN)C(=O)N1Cc2ccccc2C[C@H]1C(=O)N1CC2CCCCC2[C@H]1C(=O)NCCC(=O)N[C@@H](Cc1ccccc1)C(=O)N1Cc2ccccc2C[C@H]1C(=O)N1CC2CCCCC2[C@H]1C(=O)NCC(=O)N[C@@H](CCCCN)C(=O)N1Cc2ccccc2C[C@H]1C(=O)N1CC2CCCCC2[C@H]1C(=O)NCCC(=O)N[C@@H](Cc1ccccc1)C(=O)N1Cc2ccccc2C[C@H]1C(=O)N1CC2CCCCC2[C@H]1C(=O)NCC(=O)N[C@@H](CCCCN)C(=O)N1Cc2ccccc2C[C@H]1C(=O)N1CC2CCCCC2[C@H]1C(=O)N[C@@H](CCCCN)C(=O)N[C@@H](CCCCN)C(=O)N[C@@H](CCCCN)C(=O)N[C@@H](CCCCN)C(N)=O (stereo not given in full) (H-KL[Tic][Pro(3ξ,4ξ-(CH2)4)]GK[Tic][Pro(3ξ,4ξ-(CH2)4)][βAla]F[Tic][Pro(3ξ,4ξ-(CH2)4)]GK[Tic][Pro(3ξ,4ξ-(CH2)4)][βAla]F[Tic][Pro(3ξ,4ξ-(CH2)4)]GK[Tic][Pro(3ξ,4ξ-(CH2)4)]KKKK-NH2) | 25 (≈ 6.9 µM) | 100 (≈ 27.6 µM) | 50 (≈ 13.8 µM) | 50 (≈ 13.8 µM) | 25 (≈ 6.9 µM) | 50 (≈ 13.8 µM)
12.5 (≈ 5.06 µM) | > 100 | > 100 | > 100 | 12.5 (≈ 5.06 µM) | > 100 | CC(=O)NCC(=O)N[C@@H](Cc1ccccc1)C(=O)N1Cc2ccccc2C[C@H]1C(=O)N1CC2CCCCC2[C@H]1C(=O)NCC(=O)N[C@@H](CCCCN)C(=O)N1Cc2ccccc2C[C@H]1C(=O)N1CC2CCCCC2[C@H]1C(=O)NCC(=O)N[C@@H](Cc1ccccc1)C(=O)N1Cc2ccccc2C[C@H]1C(=O)N1CC2CCCCC2[C@H]1C(=O)NCC(=O)N[C@@H](CCCCN)C(=O)N1Cc2ccccc2C[C@H]1C(=O)CCN[C@@H](CCCCN)C(=O)N[C@@H](CCCCN)C(=O)N[C@@H](CCCCN)C(=O)N[C@@H](CCCCN)C(N)=O (stereo not given in full) (Ac-GF[Tic][Pro(3ξ,4ξ-(CH2)4)]GK[Tic][Pro(3ξ,4ξ-(CH2)4)]GF[Tic][Pro(3ξ,4ξ-(CH2)4)]GK-X6) | 50 (≈ 20.3 µM) | > 100 | > 100 | > 100 | 25 (≈ 10.1 µM) | > 100
